Laboratory results from patent US11066393B2, “Indolin-2-one derivatives” (Hoffmann-La Roche Inc., priority 2015, dated 2021).

Target: T1, mouse ENT-1 transporter (Mus musculus, UniProt Q9JIM1)
T1 construct: expressed in transfected cells
T1 sequence (Q9JIM1 1-460): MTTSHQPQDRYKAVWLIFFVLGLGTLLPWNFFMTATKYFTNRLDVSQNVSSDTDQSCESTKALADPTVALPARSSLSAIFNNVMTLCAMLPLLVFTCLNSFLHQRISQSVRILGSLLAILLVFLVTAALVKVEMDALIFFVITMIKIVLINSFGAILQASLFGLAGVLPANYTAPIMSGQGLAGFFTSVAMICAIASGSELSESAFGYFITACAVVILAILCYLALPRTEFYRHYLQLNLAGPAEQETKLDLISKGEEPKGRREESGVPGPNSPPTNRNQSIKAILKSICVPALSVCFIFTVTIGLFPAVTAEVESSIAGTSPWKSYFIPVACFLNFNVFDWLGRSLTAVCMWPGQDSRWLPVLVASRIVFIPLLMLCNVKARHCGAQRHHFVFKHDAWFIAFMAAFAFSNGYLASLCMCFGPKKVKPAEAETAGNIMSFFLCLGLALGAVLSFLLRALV
Assay: Adenosine transport activity (ENT1, [3H]-adenosine uptake)
Type: cell-based
Settings: stable cells expressing mouse ENT-1; [2,8-3H]-adenosine 6 nM, 20 min
Protocol: To measure adenosine transport activity of ENT-1 mammalian cells, stable cells expressing the mouse ENT-1 transporter were plated on day 1 in 96-well culture plates at the density of 60,000 cells/well, in complete DMEM/F12 medium supplemented with glutamax, 10% FBS and 10 μg/ml puromycin. On day 2, the medium was aspirated and the cells were washed twice with uptake buffer (10 mM Hepes-Tris, pH 7.4 containing 150 mM NaCl, 1 mM CaCl2, 2.5 mM KCl, 2.5 mM MgSO4, 10 mM D-glucose) (UB). For inhibition experiments, cells were then incubated at RT with various concentrations of compounds with 1% DMSO final. Non-specific uptake was defined in the presence of 10 μM S-(4-Nitrobenzyl)-6-thioinosine (NBTI, Sigma Cat #N2255).
A solution containing [2,8-^3H]-adenosine 6 nM (40 Ci/mmol, American Radiolabeled chemicals Inc, Cat #ART 0287A) was then immediately added to the wells. The plates were then incubated for 20 min with gentle shaking and the reaction was stopped by aspiration of the mixture and washing (three times) with ice-cold UB. The cells were lysed by the addition of scintillation liquid, shaken 3 hours and the radioactivity in the cells was estimated using a microplates scintillation counter (TopCount NXT, Packard).

**Q.** How did the IC50 turn out when Cc1ncc(-c2ccc3c(c2)N(c2cn(C)c(C(=O)N(C)C)n2)C(=O)C3(C)C)cn1 [Example 46, 4-(3,3-Dimethyl-6-(2-methylpyrimidin-5-yl)-2-oxoindolin-1-yl)-N,N,1-trimethyl-1H-imidazole-2-carboxamide] was run?
**A.** 46.9 nM

**Q.** For Cc1ncc(-c2ccc3c(c2)N(c2cnc(C(N)=O)cn2)C(=O)C3(C)C)cn1 [Example 15, 5-(3,3-Dimethyl-6-(2-methylpyrimidin-5-yl)-2-oxoindolin-1-yl)pyrazine-2-carboxamide], which IC50 is on record?
**A.** 391 nM

**Q.** With CNC(=O)c1nc(N2C(=O)C(C)(C)c3ccc(-c4cnc(C)nc4)cc32)cn1C [Example 45, 4-(3,3-Dimethyl-6-(2-methylpyrimidin-5-yl)-2-oxoindolin-1-yl)-N,1-dimethyl-1H-imidazole-2-carboxamide] as the molecule, how does the IC50 read?
**A.** 21 nM

**Q.** For Cc1ncc(-c2ccc3c(c2)N(c2cnc(C(=O)N4CCC4)cn2)C(=O)C3(C)C)cn1 [Example 13, 1-(5-(Azetidine-1-carbonyl)pyrazin-2-yl)-3,3-dimethyl-6-(2-methylpyrimidin-5-yl)indolin-2-one], which IC50 is on record?
**A.** 767 nM

**Q.** Which IC50 does the source give for CNC(=O)c1cc(N2C(=O)C(C)(C)c3ccc(-c4cnc(C)nc4)cc32)cc(C)n1 [Example 34, 4-(3,3-Dimethyl-6-(2-methylpyrimidin-5-yl)-2-oxoindolin-1-yl)-N,6-dimethylpicolinamide] here?
**A.** 1140 nM

**Q.** With Cc1ncc(-c2ccc3c(c2)N(c2cncc(C(N)=O)n2)C(=O)C3(C)C)cn1 [Example 10, 6-(3,3-Dimethyl-6-(2-methylpyrimidin-5-yl)-2-oxoindolin-1-yl)pyrazine-2-carboxamide] as the molecule, how does the IC50 read?
**A.** 197 nM

**Q.** For Cc1ncc(-c2ccc3c(c2)N(c2cccc(C(N)=O)n2)C(=O)C3(C)C)cn1 [Example 26, 6-(3,3-Dimethyl-6-(2-methylpyrimidin-5-yl)-2-oxoindolin-1-yl)picolinamide], which IC50 is on record?
**A.** 253 nM

**Q.** CNC(=O)c1nc(N2C(=O)C(C)(C)c3ccc(-c4cnc(C)nc4)cc32)ncc1C [Example 18, 2-(3,3-Dimethyl-6-(2-methylpyrimidin-5-yl)-2-oxoindolin-1-yl)-N,5-dimethylpyrimidine-4-carboxamide] was tested. Which IC50 did it give?
**A.** 78.4 nM

**Q.** Which IC50 does the source give for Cc1ncc(-c2ccc3c(c2)N(c2cncc(C(=O)N(C)C)n2)C(=O)C3(C)C)cn1 [Example 1, 6-(3,3-Dimethyl-6-(2-methylpyrimidin-5-yl)-2-oxoindolin-1-yl)-N,N-dimethylpyrazine-2-carboxamide] here?
**A.** 19.5 nM

**Q.** Cc1ncc(-c2ccc3c(c2)N(c2ccc4c(c2)C(=O)N(C)C4)C(=O)C3(C)C)cn1 [Example 37, 3,3-Dimethyl-1-(2-methyl-3-oxoisoindolin-5-yl)-6-(2-methylpyrimidin-5-yl)indolin-2-one] was tested. Which IC50 did it give?
**A.** 668 nM

**Q.** For Cc1ncc(-c2ccc3c(c2)N(c2cncc(C(=O)NC(C)C)n2)C(=O)C3(C)C)cn1 [Example 9, 6-(3,3-Dimethyl-6-(2-methylpyrimidin-5-yl)-2-oxoindolin-1-yl)-N-isopropylpyrazine-2-carboxamide], which IC50 is on record?
**A.** 196 nM

**Q.** Which IC50 does the source give for Cc1ncc(-c2ccc3c(c2)N(c2cncc(C(=O)N(C)CC(F)(F)F)n2)C(=O)C3(C)C)cn1 [Example 4, 6-(3,3-Dimethyl-6-(2-methylpyrimidin-5-yl)-2-oxoindolin-1-yl)-N-methyl-N-(2,2,2-trifluoroethyl)pyrazine-2-carboxamide] here?
**A.** 513 nM

**Q.** Cc1ncc(-c2ccc3c(c2)N(c2cncc(C(=O)NC4CCC4)n2)C(=O)C3(C)C)cn1 [Example 42, N-Cyclobutyl-6-(3,3-dimethyl-6-(2-methylpyrimidin-5-yl)-2-oxoindolin-1-yl)pyrazine-2-carboxamide] was tested. Which IC50 did it give?
**A.** 129 nM

**Q.** With COCCN(C)C(=O)c1cnc(N2C(=O)C(C)(C)c3ccc(-c4cnc(C)nc4)cc32)cn1 [Example 14, 5-(3,3-Dimethyl-6-(2-methylpyrimidin-5-yl)-2-oxoindolin-1-yl)-N-(2-methoxyethyl)-N-methylpyrazine-2-carboxamide] as the molecule, how does the IC50 read?
**A.** 186 nM

**Q.** With Cc1ncc(-c2ccc3c(c2)N(c2ccc(C(=O)N(C)C)nn2)C(=O)C3(C)C)cn1 [Example 21, 6-(3,3-Dimethyl-6-(2-methylpyrimidin-5-yl)-2-oxoindolin-1-yl)-N,N-dimethylpyridazine-3-carboxamide] as the molecule, how does the IC50 read?
**A.** 964 nM

**Q.** With Cc1ncc(-c2ccc3c(c2)N(c2cncc(C(=O)N4CCC4)n2)C(=O)C3(C)C)cn1 [Example 3, 1-(6-(Azetidine-1-carbonyl)pyrazin-2-yl)-3,3-dimethyl-6-(2-methylpyrimidin-5-yl)indolin-2-one] as the molecule, how does the IC50 read?
**A.** 31.4 nM

**Q.** With Cc1ncc(-c2ccc3c(c2)N(c2cnc(C(=O)N(C)C(C)(C)C)cn2)C(=O)C3(C)C)cn1 [Example 12, N-(tert-Butyl)-5-(3,3-dimethyl-6-(2-methylpyrimidin-5-yl)-2-oxoindolin-1-yl)-N-methylpyrazine-2-carboxamide] as the molecule, how does the IC50 read?
**A.** 927 nM

**Q.** For Cc1ncc(-c2ccc3c(c2)N(c2cncc(C(=O)NC4CC(F)(F)C4)n2)C(=O)C3(C)C)cn1 [Example 40, N-(3,3-Difluorocyclobutyl)-6-(3,3-dimethyl-6-(2-methylpyrimidin-5-yl)-2-oxoindolin-1-yl)pyrazine-2-carboxamide], which IC50 is on record?
**A.** 323 nM

**Q.** With CNC(=O)c1cncc(N2C(=O)C(C)(C)c3ccc(-c4cnc(C)nc4)cc32)c1 [Example 33, 5-(3,3-Dimethyl-6-(2-methylpyrimidin-5-yl)-2-oxoindolin-1-yl)-N-methylnicotinamide] as the molecule, how does the IC50 read?
**A.** 559 nM

**Q.** With CNC(=O)c1nc(N2C(=O)C(C)(C)c3ccc(-c4cnc(C)nc4)cc32)ccc1C [Example 27, 6-(3,3-Dimethyl-6-(2-methylpyrimidin-5-yl)-2-oxoindolin-1-yl)-N,3-dimethylpicolinamide] as the molecule, how does the IC50 read?
**A.** 14.8 nM

**Q.** Cc1ncc(-c2ccc3c(c2)N(c2ccc(C)c(C(=O)N(C)C)n2)C(=O)C3(C)C)cn1 [Example 28, 6-(3,3-Dimethyl-6-(2-methylpyrimidin-5-yl)-2-oxoindolin-1-yl)-N,N,3-trimethylpicolinamide] was tested. Which IC50 did it give?
**A.** 351 nM

**Q.** With Cc1ncc(-c2ccc3c(c2)N(c2cncc(C(=O)N4CCC4)c2)C(=O)C3(C)C)cn1 [Example 31, 1-(5-(Azetidine-1-carbonyl)pyridin-3-yl)-3,3-dimethyl-6-(2-methylpyrimidin-5-yl)indolin-2-one] as the molecule, how does the IC50 read?
**A.** 202 nM

**Q.** Cc1ncc(-c2ccc3c(c2)N(c2cncc(C(=O)NC4CC4)n2)C(=O)C3(C)C)cn1 [Example 39, N-Cyclopropyl-6-(3,3-dimethyl-6-(2-methylpyrimidin-5-yl)-2-oxoindolin-1-yl)pyrazine-2-carboxamide] was tested. Which IC50 did it give?
**A.** 76.4 nM

**Q.** With CNC(=O)c1nccc(N2C(=O)C(C)(C)c3ccc(-c4cnc(C)nc4)cc32)n1 [Example 20, 4-(3,3-Dimethyl-6-(2-methylpyrimidin-5-yl)-2-oxoindolin-1-yl)-N-methylpyrimidine-2-carboxamide] as the molecule, how does the IC50 read?
**A.** 120 nM

**Q.** For COCCN(C)C(=O)c1cncc(N2C(=O)C(C)(C)c3ccc(-c4cnc(C)nc4)cc32)n1 [Example 5, 6-(3,3-Dimethyl-6-(2-methylpyrimidin-5-yl)-2-oxoindolin-1-yl)-N-(2-methoxyethyl)-N-methylpyrazine-2-carboxamide], which IC50 is on record?
**A.** 382 nM

**Q.** For Cc1ncc(-c2ccc3c(c2)N(c2cnc4c(c2)C(=O)N(C)C4)C(=O)C3(C)C)cn1 [Example 36, 3-(3,3-Dimethyl-6-(2-methylpyrimidin-5-yl)-2-oxoindolin-1-yl)-6-methyl-6,7-dihydro-5H-pyrrolo[3,4-b]pyridin-5-one], which IC50 is on record?
**A.** 637 nM
